According to patent publication US20170196987A1, “METHODS FOR TREATING MULTIPLE SCLEROSIS” (MedWell Laboratories Ltd., priority 2014, published 2017):

Experiments:
[1] = system: Experimental Autoimmune Encephalomyelitis (EAE) mice; experiment: Efficacy of oral and ip MWL-001, MP and their combination in EAE (model of brain inflammation, MS), Example 2; type: in vivo, female C57Bl mice; details: for Inhibition of the clinical signs of the disease: day 0 to day 15
Protocol: Induction of EAE: Disease was induced in female C57Bl mice (6-8 weeks old; Harlan). Myelin Oligodendrocyte Glycoprotein (MOG 35-55) (Hadassah ein karem) was dissolved in saline (3 mg/ml) and emulsified (1:1) with Complete Freund's Adjuvant (CFA) (gibco; containing 5 mg of killed MT). 200 microliter of emulsion (containing […] of MOG) was injected into the right flank, and each mouse received a supplement of 250 ng of pertussis toxin (List) i.p. Another 250 ng of pertussis toxin (PT) were injected 24 hours later. Mice were observed daily from the 9th day post-EAE and the clinical signs were scored as described in Table III below.
MWL-001 was dissolved in ethanol (60 mg/ml), wherein in one group MWL-001 was administered ip and in a second group MWL-001 was administered orally by gavage at a dose of 50 mg/kg (10% stock in saline). The MWL-001 was administered once a day (from day 0) at 9 am. Treatment ended on day 15 post inoculation. Each dose was administered in a volume of 0.2 ml/mouse
A third group of animals was treated ip with a dose of 25 mg/kg starting on day 7 and ending on day 15
The number of animals in each of the above five groups was between 9 and 11.
Calculation of the incidence of disease: The number of sick animals in each group was summed and percentage of sick animals in each group calculated.
Calculation of the mean maximal score (MMS): The maximal scores of each of the 10 mice in the group were summed and the mean maximal score of each group was calculated as follows:Σ maximal score of each mouse / number of mice in the group.
Calculation of the group mean score (GMS): The scores of each of the 10 mice in the group was summed and the mean score per day calculated. The group mean score was calculated as follows: Σ total score of each mouse per day/number of mice in the group.

[2] = system: spinal cord of EAE animal; experiment: Histopathology of H&E stained spinal cord sections of EAE animals; type: in vivo, mice
Description: FIG. 5 (A, B and C) is a histopathological photograph of a spinal cord section stained with H&E of control untreated EAE animal. P=parenchymal infiltrates, M=meningeal infiltrates and D=diffused infiltrates.
FIG. 6 (A and B) is a histopathological photograph of a spinal cord section stained with H&E of EAE animal treated with MWL-001 (i.p.) on day 0.
FIG. 7 (A and B) is a histopathological photograph of a spinal cord section stained with H&E of EAE animal treated with MWL-001 (i.p.) on day 10.
Histopathological photographs are presented as FIGS. 5, 6 and 7).

[3] = system: Experimental Autoimmune Encephalomyelitis (EAE) mice; experiment: Efficacy of conjugate MW001 in MOG 35-55 induced EAE (model of multiple sclerosis), Example 1; type: in vivo, female C57B1 mice
Protocol: Disease was induced in female C57B1 mice (6-8 weeks old; Harlan). Myelin Oligodendrocyte Glycoprotein (MOG) 35-55 was dissolved in saline (3 mg/ml) and emulsified (1:1) with Complete Freund's Adjuvant (CFA) (gibco; containing 5 mg of killed mycobacterium tuberculosis (MT). 200 μl of the emulsion (containing […] of MOG) were injected into the right flank of each mouse, wherein and each mouse received a 250 ng supplement of pertussis toxin (PT, List) by intraperitoneal injection. Another 250 ng of PT were injected into the right flank of each mouse 24 hours later. The mice were observed daily from the 9th day post-EAE and the clinical signs were scored as described in Table 1 below:
The MW-001 conjugate was dissolved in ethanol (60 mg/ml) and administered by intraperitoneal injection, at a dose of 50 mg/kg (10% stock in saline) twice a day, once at 9 am and once at […]. Each dose was administered in a volume of 0.2ml/mouse (˜20 g). One group of animals was treated starting at day 0 (relating to the first day on which the induction of the disease started) and the other starting at day 10, when clinical signs first appeared. […]
Calculation of the incidence of disease: The number of sick animals in each group was summed and percentage of sick animals in each group was calculated.
Calculation of the mean maximal score (MMS): The maximal scores of each of the 10 mice in the group was summed and the mean maximal score of each group was calculated as follows:Σmaximal score of each mouse/number of mice in the group.
Calculation of the group mean score (GMS):The scores of each of the 10 mice in the group was summed and the mean score per day calculated. The group mean score was calculated as follows: Σtotal score of each mouse per day/number of mice in the group.
Mean maximal score (MMS): defined as the disease severity; scored on a scale of 0-5 with graduations of 0.5 for intermediate clinical signs. The score is described in table-1

[4] = MWL-001 i.p. treatment started at day 10, FIG. 7 A and B
[5] = MW-001 50 mg/kg ip twice a day, treatment started on day 0, monitored day 0 to day 20
[6] = MW-001 50 mg/kg ip twice a day, treatment started on day 10, monitored day 0 to day 20

CC/C=C/C/C=C/C/C=C/C/C=C/C/C=C/C/C=C/CCC(=O)N1CC(O)CC1C(=O)O (stereo not shown) [MW-001]
Severity of disease (clinical score) ([1]; 25 mg/kg ip, day 7 to day 15, 5 in the control group, FIG. 3): 3
Inhibition of appearance of clinical signs ([1]; 25 mg/kg ip, day 7 to day 15, FIG. 3): did not inhibit their appearance on day 10-11 post inoculation
Inhibition of the clinical signs of the disease ([1]; 50 mg/kg once a day ip, FIG. 2): effective in inhibiting the clinical signs of the disease
Inhibition of the clinical signs of the disease ([1]; 50 mg/kg once a day orally by gavage, FIG. 2): effective in inhibiting the clinical signs of the disease
Clinical signs after cessation of the drug ([1]; 50 mg/kg once a day orally or ip, a few days after treatment ended on day 15, FIG. 2): mild signs of the disease appeared for a short period of time
Mononuclear cell infiltrates in the spinal cord (meningeal) ([2]; MWL-001 i.p. on Day 0, compared to untreated, FIG. 6 A and B): very few meningeal infiltrates
Mononuclear cell infiltrates in the spinal cord (meningeal) [2, 4]: very few meningeal infiltrates
Parenchymal or diffused infiltrates in the spinal cord [2, 4]: no parenchymal or diffused infiltrates
Effectiveness in preventing and ameliorating EAE (overall, vs untreated group) ([3]; 50 mg/kg ip twice a day, started on day 0 or day 10): highly effective in preventing and ameliorating EAE in mice
Disease incidence (sick mice/total) [3, 5]: **1/10
Mean day of onset [3, 5]: 15
Mean disease duration [3, 5]: 0.6 ± 0.19 days
Mean maximal score [3, 5]: 0.075 ± 0.02
Mean score (whole group) [3, 5]: 0.2 ± 0.06
Incidence (#dead, including sacrificed) [3, 6]: 11/11
Mean day of onset [3, 6]: 11 ± 0.09
Mean disease duration [3, 6]: 8.90 ± 0.2 days
Mean maximal score [3, 6]: 2.72 ± 0.14
Mean score (whole group) [3, 6]: 1.34 ± 0.08
